Source: ChEMBL document CHEMBL4007467, “Effects of 6-paradol, an unsaturated ketone from gingers, on cytochrome P450-mediated drug metabolism” (Bioorg Med Chem Lett, 2017)

Columns and labels:
Assay type in all cases: ADME
CYP1A2 [1] = target: T1, CYP1A2 (Homo sapiens, UniProt P05177); experiment: Inhibition of CYP1A2 in human liver microsomes assessed as enzyme-mediated metabolite formation at 30 uM using phenacetin as substrate incubated for 5 mins followed by NADPH addition measured after 30 mins by LC-MS/MS analysis relative to control; design: scale not given: the % may be the effect or the level left; conditions: probe phenacetin, read-out: Activity
T1 sequence (P05177 whole entry): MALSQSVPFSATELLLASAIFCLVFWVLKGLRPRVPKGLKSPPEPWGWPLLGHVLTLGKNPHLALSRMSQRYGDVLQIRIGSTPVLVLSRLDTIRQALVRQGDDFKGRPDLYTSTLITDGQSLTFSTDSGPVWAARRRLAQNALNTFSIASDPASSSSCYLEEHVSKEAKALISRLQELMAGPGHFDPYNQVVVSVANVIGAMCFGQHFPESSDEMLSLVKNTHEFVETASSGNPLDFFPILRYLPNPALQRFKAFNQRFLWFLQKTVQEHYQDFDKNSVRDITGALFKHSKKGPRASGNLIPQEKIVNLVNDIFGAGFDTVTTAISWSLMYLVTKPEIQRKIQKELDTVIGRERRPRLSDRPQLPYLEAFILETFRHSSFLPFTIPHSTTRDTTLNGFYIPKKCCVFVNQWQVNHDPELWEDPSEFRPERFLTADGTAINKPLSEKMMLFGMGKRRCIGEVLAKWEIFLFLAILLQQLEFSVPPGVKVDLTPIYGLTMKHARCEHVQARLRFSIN

CYP2C8 = target: T2, CYP2C8 (Homo sapiens, UniProt P10632); experiment: Inhibition of CYP2C8 in human liver microsomes assessed as enzyme-mediated metabolite formation at 10 uM using paclitaxel as substrate incubated for 5 mins followed by NADPH addition measured after 30 mins by LC-MS/MS analysis relative to control; design: scale not given: the % may be the effect or the level left; conditions: probe paclitaxel, read-out: Activity
T2 sequence (P10632 whole entry): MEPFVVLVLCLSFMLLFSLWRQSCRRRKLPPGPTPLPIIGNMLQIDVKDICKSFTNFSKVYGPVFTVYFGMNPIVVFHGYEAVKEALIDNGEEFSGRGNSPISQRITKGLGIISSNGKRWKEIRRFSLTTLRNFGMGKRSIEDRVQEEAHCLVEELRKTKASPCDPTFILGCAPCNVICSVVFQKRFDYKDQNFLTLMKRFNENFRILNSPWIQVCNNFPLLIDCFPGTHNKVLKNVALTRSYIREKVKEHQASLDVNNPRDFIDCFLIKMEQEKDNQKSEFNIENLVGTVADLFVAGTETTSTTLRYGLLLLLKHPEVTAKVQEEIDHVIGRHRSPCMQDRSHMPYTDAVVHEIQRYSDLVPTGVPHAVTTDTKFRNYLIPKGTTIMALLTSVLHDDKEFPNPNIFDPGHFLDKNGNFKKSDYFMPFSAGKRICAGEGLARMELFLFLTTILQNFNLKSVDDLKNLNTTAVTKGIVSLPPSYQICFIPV

CYP2D6 = CYP2D6 (Homo sapiens, UniProt P10635); experiment: Inhibition of CYP2D6 in human liver microsomes assessed as enzyme-mediated metabolite formation at 0.3 uM using dextromethorphan as substrate incubated for 5 mins followed by NADPH addition measured after 30 mins by LC-MS/MS analysis relative to control; design: scale not given: the % may be the effect or the level left; conditions: probe dextromethorphan, read-out: Activity
CYP3A4 = CYP3A4 (Homo sapiens, UniProt P08684); experiment: Inhibition of CYP3A4 in human liver microsomes assessed as enzyme-mediated metabolite formation at 1 uM using midazolam as substrate incubated for 5 mins followed by NADPH addition measured after 30 mins by LC-MS/MS analysis relative to control; design: scale not given: the % may be the effect or the level left; conditions: probe midazolam, read-out: Activity
CYP1A2 [2] = target: T1, CYP1A2; experiment: Inhibition of CYP1A2 in human liver microsomes assessed as enzyme-mediated metabolite formation at 1 uM using phenacetin as substrate preincubated for 20 mins followed by substrate addition measured after 30 mins in presence of NADPH by LC-MS/MS analysis relative to control; design: scale not given: the % may be the effect or the level left; conditions: probe phenacetin, read-out: Activity
Cytochrome P450 2A6 = target: T3, Cytochrome P450 2A6 (Homo sapiens, UniProt P11509); experiment: Inhibition of CYP2A6 in human liver microsomes using coumarin as substrate preincubated for 20 mins followed by substrate addition measured after 30 mins in presence of NADPH by LC-MS/MS analysis
T3 sequence (P11509 whole entry): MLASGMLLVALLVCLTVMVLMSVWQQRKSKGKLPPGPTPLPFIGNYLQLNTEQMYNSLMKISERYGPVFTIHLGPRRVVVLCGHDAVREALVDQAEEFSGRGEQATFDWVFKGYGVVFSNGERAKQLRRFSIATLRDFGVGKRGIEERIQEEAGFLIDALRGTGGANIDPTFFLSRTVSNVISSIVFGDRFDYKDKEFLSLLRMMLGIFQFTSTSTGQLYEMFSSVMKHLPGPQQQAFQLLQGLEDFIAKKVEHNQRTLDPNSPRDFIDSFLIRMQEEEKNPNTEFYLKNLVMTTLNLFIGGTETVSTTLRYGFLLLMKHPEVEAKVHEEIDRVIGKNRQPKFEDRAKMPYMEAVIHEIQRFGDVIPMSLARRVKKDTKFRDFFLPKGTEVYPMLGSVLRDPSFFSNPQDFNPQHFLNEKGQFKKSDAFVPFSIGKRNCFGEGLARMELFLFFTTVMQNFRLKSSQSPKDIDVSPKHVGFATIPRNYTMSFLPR

CYP2B6 [3] = target: T4, CYP2B6 (Homo sapiens, UniProt P20813); experiment: Inhibition of CYP2B6 in human liver microsomes assessed as enzyme-mediated metabolite formation at 0.3 uM using bupropion as substrate preincubated for 20 mins followed by substrate addition measured after 30 mins in presence of NADPH by LC-MS/MS analysis relative to control; design: scale not given: the % may be the effect or the level left; conditions: probe bupropion, read-out: Activity
T4 sequence (P20813 whole entry): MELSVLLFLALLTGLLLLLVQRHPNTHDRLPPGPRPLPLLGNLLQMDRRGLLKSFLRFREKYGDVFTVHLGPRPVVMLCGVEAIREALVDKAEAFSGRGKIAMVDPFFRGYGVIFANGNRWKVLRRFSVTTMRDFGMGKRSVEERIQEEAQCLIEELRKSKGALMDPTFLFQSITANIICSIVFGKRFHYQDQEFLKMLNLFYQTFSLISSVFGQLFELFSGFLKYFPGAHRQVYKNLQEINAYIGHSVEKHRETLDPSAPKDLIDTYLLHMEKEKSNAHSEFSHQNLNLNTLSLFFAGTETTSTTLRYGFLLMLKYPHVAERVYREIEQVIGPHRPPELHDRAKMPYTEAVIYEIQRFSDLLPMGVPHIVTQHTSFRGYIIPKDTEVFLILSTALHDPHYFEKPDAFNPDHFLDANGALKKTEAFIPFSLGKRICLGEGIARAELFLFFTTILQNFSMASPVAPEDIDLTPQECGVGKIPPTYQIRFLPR

CYP2B6 [4] = target: T4, CYP2B6; experiment: Inhibition of CYP2B6 in human liver microsomes assessed as enzyme-mediated metabolite formation at 30 uM using bupropion as substrate preincubated for 20 mins followed by substrate addition measured after 30 mins in presence of NADPH by LC-MS/MS analysis relative to control; design: scale not given: the % may be the effect or the level left; conditions: probe bupropion, read-out: Activity
Cytochrome P450 2C19 = Cytochrome P450 2C19 (Homo sapiens, UniProt P33261); experiment: Inhibition of human CYP2C19 using (S)-mephenytoin as substrate incubated for 5 mins followed by NADPH addition measured after 30 mins by LC-MS/MS analysis
Cytochrome P450 2C19, sequence (P33261 whole entry): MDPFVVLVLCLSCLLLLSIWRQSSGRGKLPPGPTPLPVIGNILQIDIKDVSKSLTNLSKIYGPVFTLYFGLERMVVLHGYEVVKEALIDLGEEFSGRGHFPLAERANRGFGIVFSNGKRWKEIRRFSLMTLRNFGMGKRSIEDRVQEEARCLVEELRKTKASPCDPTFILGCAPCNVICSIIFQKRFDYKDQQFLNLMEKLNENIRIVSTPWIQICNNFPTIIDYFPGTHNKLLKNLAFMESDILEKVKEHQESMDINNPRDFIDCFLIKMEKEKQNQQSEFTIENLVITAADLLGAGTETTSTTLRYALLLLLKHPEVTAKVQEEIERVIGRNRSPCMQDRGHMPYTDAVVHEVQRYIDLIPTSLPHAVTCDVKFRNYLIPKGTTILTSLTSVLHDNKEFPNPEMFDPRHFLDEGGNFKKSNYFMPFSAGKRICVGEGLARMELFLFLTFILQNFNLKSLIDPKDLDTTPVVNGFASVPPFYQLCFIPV

CYP3A4, sequence (P08684 whole entry): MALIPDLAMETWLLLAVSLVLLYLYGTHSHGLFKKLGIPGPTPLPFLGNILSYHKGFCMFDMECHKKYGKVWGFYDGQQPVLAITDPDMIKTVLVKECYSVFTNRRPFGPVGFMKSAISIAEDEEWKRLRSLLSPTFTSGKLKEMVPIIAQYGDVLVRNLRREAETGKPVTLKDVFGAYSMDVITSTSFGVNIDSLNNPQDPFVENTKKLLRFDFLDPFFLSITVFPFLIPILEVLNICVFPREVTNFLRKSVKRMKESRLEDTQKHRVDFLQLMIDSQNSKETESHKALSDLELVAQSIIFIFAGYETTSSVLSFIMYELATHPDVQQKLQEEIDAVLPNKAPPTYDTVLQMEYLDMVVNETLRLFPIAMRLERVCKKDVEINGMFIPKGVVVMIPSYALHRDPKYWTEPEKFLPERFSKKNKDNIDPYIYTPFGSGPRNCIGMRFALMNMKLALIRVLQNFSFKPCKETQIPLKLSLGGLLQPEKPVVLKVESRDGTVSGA
CYP2D6, sequence (P10635 whole entry): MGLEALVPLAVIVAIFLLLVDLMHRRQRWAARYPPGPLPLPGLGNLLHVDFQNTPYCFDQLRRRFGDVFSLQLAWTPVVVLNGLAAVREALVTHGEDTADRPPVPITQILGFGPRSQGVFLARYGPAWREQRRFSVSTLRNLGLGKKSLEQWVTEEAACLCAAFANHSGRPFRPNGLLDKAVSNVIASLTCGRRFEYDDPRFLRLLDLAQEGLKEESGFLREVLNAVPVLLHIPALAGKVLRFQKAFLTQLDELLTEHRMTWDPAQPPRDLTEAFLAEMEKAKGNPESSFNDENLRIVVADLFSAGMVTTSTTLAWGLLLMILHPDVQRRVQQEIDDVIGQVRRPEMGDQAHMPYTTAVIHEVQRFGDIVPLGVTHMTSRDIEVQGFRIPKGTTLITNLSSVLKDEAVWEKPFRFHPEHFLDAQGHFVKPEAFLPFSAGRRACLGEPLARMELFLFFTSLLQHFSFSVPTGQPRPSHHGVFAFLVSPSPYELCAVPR

- activity at 0.5 h, 30 µM (CYP1A2 [1]): 35.5%
- activity at 0.5 h, 10 µM (CYP2C8): 45.5%
- activity at 0.5 h, 0.3 µM (CYP2D6): 76%
- activity at 0.5 h, 1 µM (CYP3A4): 88.5%
- activity at 0.5 h, 1 µM (CYP1A2 [2]): 82.1%
- IC50 (Cytochrome P450 2A6): > 30 µM
- activity at 0.5 h, 0.3 µM (CYP2B6 [3]): 81.3%
- activity at 0.5 h, 30 µM (CYP2B6 [4]): 45.5%
- IC50 (Cytochrome P450 2C19): 5.8 µM
- inhibition (INH) (Cytochrome P450 2C19; human, 0.5 h): Dose-dependent effect
SMILES: CCCCCCCC(=O)CCc1ccc(O)c(OC)c1
